Measurements reported in patent US20180256489A1, “NATURAL FORMULATIONS” (priority 2010, published 2018).

Legend:
[1] = Foaming by shaking in a covered glass cylinder; format: physicochemical; details: Table 5; 1 wt % calculated saponins in distilled water
Description: (§1) Foaming properties of a solution of 1 wt % of the extract of the invention in water were measured by shaking 10 ml of the solution five times in a 100 ml covered glass cylinder. The volume of the generated foam was measured. Another method for measuring the foaming was performed by Moulinex LM240 blender at a maximum speed of 10 seconds for 80 ml solution. The generated foam was transferred to glass cylinder and measured. The same procedure was repeated with extracts obtained by various ethanol/water mixtures. Foaming—solution of 1 wt % of the extract in water was shaken five times in a glass cylinder as described above. The volume of the generated foam was measured. Another method for measuring the foaming was performed by Moulinex LM240 blender at a maximum speed of 10 seconds for 80 ml solution and measured in a glass cylinder, and the foaming results are detailed in Table 4 below.

[2] = Foaming by Moulinex LM240 blender; format: physicochemical; details: Table 5; 1 wt % calculated saponins in distilled water
Description: as §1

[3] = system: erythrocytes of sheep blood; test: Haemolysis test (model for eye irritation); format: cell-based; details: 50% haemolysis, 30 minutes in ice, 540 nm
Description: Haemolysis test (which serves as a model for eye irritation) was conducted in order to determine the safety of the products of the invention in comparison to the commercial surfactant SLES (sodium lauryl ether sulfate).
Preparation of the erythrocyte suspension: erythrocytes of sheep blood were separated by centrifugation at 1250g, for 15 minutes at room temperature, washed three times with phosphate-buffered saline solution (PBS, pH 7.4), and centrifuged twice under the same condition. The blood volume was completed with PBS. This suspension was maintained at 4° C. for up to three days.
The assay procedure: 20 μl of each sample were diluted up to 2 ml of the suspension, and were incubated with for 30 minutes in ice. The incubation was terminated by a rapid, high-speed (1800 g) centrifugation for 30 minutes. The extent of haemolysis was determined in spectrophotometrically at 540 nm against a blank (PBS). The extent of haemolysis, expressed as a percentage, was calculated as the absorbance of an erythrocyte suspension incubated with each product, relative to that of a completely haemolysed control (100%, at distilled water) at 540 nm. The Hm50 (50% haemolysis) was determined from concentration—response curves.

| Substance | Foam volume by shaking [1] | Foam volume by blender [2] | HM50 [3] |
| --- | --- | --- | --- |
| decyl glycoside [1 wt % Decyl glycoside] | 57 (±5) ml | 420 (±15) ml |  |
| sodium lauryl ether sulfate [SLES] |  |  | 0.001 gram/100 ml |
